# Experimental data taken from publication PMC11232398, “Antimalarial activity of cecropin antimicrobial peptides derived from Anopheles mosquitoes” (Antimicrobial Agents and Chemotherapy, 2024).
# How the values were obtained:
# [1] = tested on: P. falciparum 3D7 (sensitive strain); experiment: In vitro antimalarial activity, 3-day inhibition assay; assay type: cell-based, Plasmodium falciparum; conditions: Giemsa smears
# Method: (§1) Blood stages of the laboratory clones P. falciparum 3D7 (sensitive strain), P. falciparum 803 (artemisinin-resistant strain), and P. falciparum Dd2 (chloroquine-resistant strain) were cultured in vitro according to the method of Trager and Jensens with minor modifications ([37]). Briefly, cultures were maintained in O-positive human erythrocytes (RBCs) as host cells at 2% hematocrit and maintained in complete medium (CM) [RPMI-1640 culture medium supplemented with NaHCO3 (2 mg/mL), hypoxanthine (50 µg/mL), HEPES (5.96 mg/mL), albumax II (1%), and gentamicin (40 µg/mL)]. The cultures were diluted to 1% parasitemia and 2% hematocrit in CM and incubated in a humidified atmosphere with 5% O2, 5% CO2, and 90% N2 at 37°C. Prior to experiments, the cultures were highly synchronized for ring stages using 5% sorbitol twice at a 40-h interval. Briefly, ring stage cultures were centrifuged and the pellet was washed once in incomplete medium (ICM, RPMI-1640 without addition). Then, the pellet was resuspended in 5% sorbitol and incubated at 37°C for 10 min. After incubation, the suspension was centrifuged and the pellet was washed once and resuspended in medium. The development of the parasite was observed using light microscopy, and parasitemia was determined by counting at least 10,000 RBCs on Giemsa’s solution-stained thin blood smears.
# Highly synchronous ring stage parasites were used to investigate the in vitro antimalarial activity of the peptides. For preliminary screening of in vitro antimalarial activity, a 3-day inhibition assay was used to test the antimalarial activity of An-cecA, An-cecB, and An-cecC. […] For IC50 assay, a series of concentrations of peptides were added to the parasite culture. The concentrations of An-cecB were 5, 15, 20, 25, 30, 35, and 40 µM, while those of An-cecB-1 were 20, 30, 40, 50, 60, 70, 80, and 90 µM. After 72 hours of incubation, the antimalarial effects of peptides were estimated. Thin blood films stained with Giemsa’s solution were counted under a microscope. The parasitemia of cultures treated with peptides was compared with that of control. IC50 was calculated by GraphPad Prism.
# [2] = tested on: P. falciparum 803 (artemisinin-resistant strain); experiment: In vitro antimalarial IC50 assay; assay type: cell-based, Plasmodium falciparum; conditions: strain 803, 72 h incubation, Giemsa smears
# Method: as §1, with “Then, the pellet was resuspended in 5% sorbitol and incubated at 37°C for 10 min. After incubation, the suspension was centrifuged and the pellet was washed once and resuspended in medium.” left out
# (§2) Highly synchronous ring stage parasites were used to investigate the in vitro antimalarial activity of the peptides. […] Thin blood films stained with Giemsa’s solution were counted under a microscope. […] IC50 was calculated by GraphPad Prism.
# [3] = tested on: P. falciparum Dd2 (chloroquine-resistant strain); experiment: In vitro antimalarial IC50 assay; assay type: cell-based, Plasmodium falciparum; conditions: strain Dd2, 72 h incubation, Giemsa smears
# Method: as §1, with “Then, the pellet was resuspended in 5% sorbitol and incubated at 37°C for 10 min. After incubation, the suspension was centrifuged and the pellet was washed once and resuspended in medium.” left out
# as §2
# [4] = tested on: Plasmodium falciparum 3D7; experiment: Transmission electron microscope analysis of parasite morphology; assay type: cell-based; conditions: TEM
# Method: 3D7 strain parasites with parasitemia of 3% ~ 5% at a hematocrit of 2% were planted in 12-well plates, 3 mL/well. A 40-µM concentration of An-cecB or 200 µM An-cecB-1 was added and incubated for 30 min or 60 min. PBS was used as a control.
# After incubation, the parasites were washed three times with ICM, and the electron microscope fixative solution (provided by the company) was added to keep the parasites clumped for 2 hours at room temperature. Finally, the samples were sent to a commercial company at 4°C for transmission electron microscope analysis.
# Bacillus subtilis (ATCC) = experiment: Antimicrobial assay, broth dilution; assay type: cell-based; conditions: B. subtilis
# Method: (§3) Gram-positive bacteria S. aureus, B. subtilis, and Gram-negative E. coli were used in antimicrobial assays. Bacteria were first grown in LB (Luria-Bertani) broth to an absorbance of 0.8 at 600 nm. The antibacterial behavior of the peptides was studied via the agar disc diffusion assay and broth microdilution method ([41], [42]). The agar plates were made by pouring 20 mL of LB broth containing 1.5% agar into 60-mm Petri dishes. Then, a 100-µL bacterial suspension (10^6 CFU/mL) was spread over the LB agar plate. Ten microliters of the 2-mg/mL peptide sample was carefully dropped onto sterile 2-mm diameter paper discs that had been previously attached to the plate. The plates were carefully placed in an incubator at 37°C for 24 hours. If an examined sample had antimicrobial activity, a clear zone was observed around the filter paper representing inhibition of bacterial growth. The MIC was determined by the broth dilution method, and the absorbance value was measured at an optical density at 600 nm (OD600) to determine the inhibition rate of peptides at different concentrations against each bacteria. Then, the MIC at which no visible growth occurred was recorded ([38]). The MIC50 was calculated by GraphPad Prism.
# [5] = tested on: Escherichia coli (ATCC 25922); experiment: Antimicrobial assay, broth dilution; assay type: cell-based; conditions: E. coli
# Method: as §3
# [6] = tested on: Staphylococcus aureus (ATCC 6538); experiment: Antimicrobial assay, broth dilution; assay type: cell-based; conditions: S. aureus
# Method: as §3
# [7] = tested on: RBCs infected by schizonts of P. falciparum 3D7; experiment: Hemolytic activity on RBCs infected by schizonts; assay type: cell-based, human; conditions: percoll-purified 3D7 schizonts, 2% hematocrit in PBS
# Method: To test the hemolytic activity of the peptides against RBCs infected by Plasmodium, schizonts of the P. falciparum 3D7 strain were collected. The parasite culture of mainly schizonts was centrifuged and resuspended to 50% hematocrit. Then, the resuspended culture was carefully laid on top of the gradient with 3 mL 70% and 3 mL 40% percoll-sorbitol solution. After centrifugation at 2,300 × g for 20 min at 20°C, schizonts from the 40/70% interface were collected and washed twice with 10× volume of ICM. The collected parasites were resuspended in PBS to 2% hematocrit for hemolysis assay as described above.
# [8] = 40 µM An-cecB or 200 µM An-cecB-1, total 20 / 22
sequence,measurement,setting,value
APRWKFGKRLEKLGRNVFRAA KKALPVIAGYKAL-NH2 [An-cecB],inhibition rate,"[1]; 50 µM peptide, 72 h, ring stage, 1% parasitemia, 2% hematocrit",100%
same,IC50,"[1]; 3D7, 72 h incubation, GraphPad Prism, two independent assays, three technical replicates",12.4 µM
same,IC50,[2],9.89 µM
same,IC50,[3],12.8 µM
same,Normal (number of parasites),"[4]; 40 µM An-cecB or 200 µM An-cecB-1, 30 or 60 min, total 20 (An-cecB), 22 (An-cecB-1)",7
same,Disintegration (number of parasites),[4]; [8],3
same,Parasite disoriented (number of parasites),[4]; [8],4
same,Parasite membrane dissolution (number of parasites),[4]; [8],7
same,Parasite shrunken (number of parasites),[4]; [8],9
same,Vacuole formation (number of parasites),[4]; [8],3
same,MIC,Bacillus subtilis (ATCC); OD600,3.75 µM
same,MIC50,"Bacillus subtilis (ATCC); OD600, GraphPad Prism",0.85 µM
same,MIC,[5]; OD600,3.75 µM
same,MIC50,"[5]; OD600, GraphPad Prism",0.63 µM
same,MIC,[6]; OD600,30 µM
same,MIC50,"[6]; OD600, GraphPad Prism",7.314 µM
same,hemolytic activity to infected erythrocytes,[7],specifically lysed infected erythrocytes
